The nature of series [1]: Hepatocyte intrinsic clearance assay (metabolic stability), human hepatocytes. Particulars: male, human, cryopreserved pooled hepatocytes, Human Hepatocytes, 1 μM test compound. It counts as in vitro ADME. From the text: (§1) The liver is an important organ in the body for drug metabolism. This Example describes hepatocyte intrinsic clearance assays using both human and rat hepatocytes to evaluate the metabolic stability of the indole compounds disclosed herein. The parameters measured include t1/2 (half-life), CLint (intrinsic clearance), and EH (hepatic extraction ratio).
(§2) Testosterone (Lot FE111011-01) was obtained from Cerilliant (Round Rock, Tex.). 7-hydroxycoumarin (Lot 11631ED) was obtained from Sigma Aldrich (St. Louis, Mo.). Cryopreserved human hepatocytes pooled from ten donor males (X008001), cryopreserved male IRC/CD-1 mouse hepatocytes (M005052), INVITROGRO HI Medium (incubation), and INVITROGRO HT Medium (thawing) were obtained from Bioreclamation IVT (Baltimore, Md.). All solvents were obtained from commercial sources and used without further purification.
(§3) Each test compound was prepared as a 1 mM stock solution in DMSO. A 2 μM solution of test compound and positive controls were prepared in INVITROGRO HI Medium (incubation). These solutions were pre-warmed in a sterile incubator set to maintain 37° C., 5% CO2, and 98% humidity. Cryopreserved hepatocytes were prepared at a concentration of 2×10^6 living cells/mL in incubation media and pre-warmed in the incubator. The compound solutions and hepatocyte mixtures were then combined at a ratio of 1:1 (v:v). The final volume of the reaction mixture was 750 μL, containing 1 μM test compound (10 μM for 7-hydroxycoumarin) and […]. The reaction mixture was placed in the incubator on a plate shaker. After 0, 15, 30, 60, 90, and 120 minutes of incubation, 100 μL of reaction mixtures were removed from the incubation plate and mixed with 150 μL of ice-cold acetonitrile in a designated well of a 96-well crash plate. The 96-well crash plate was placed on ice for 15 min, and samples were centrifuged (3,600 RPM, 10 min, 4° C.) to precipitate protein. The supernatants were diluted 1:1 (v:v) with water containing 0.15 μM verapamil and/or 1 μM tolbutamide (internal standards for positive and negative modes, respectively) in a 96-well shallow injection plate. This plate was sealed for LC-MS analysis. All measurements were done in duplicate.
(§4) The residual compound remaining (% R) was determined from LC-MS peak areas by comparison to the zero time point. Metabolic half-life (t1/2) and intrinsic clearance (CLint) values were calculated from the slope of the plot of ln (% R) vs. time and the concentration of hepatocytes present in the incubation. Percent remaining at 60 minutes was calculated by plugging in the 60 minute value into the slope equation generated by the percent remaining time points.
(§5) In vivo hepatic clearance CLH was calculated using the well stirred liver model according to the following equation:
(§6) [formula] where QH is the total liver blood flow, fu is unbound fraction of the drug, and CL′int is defined as follows: CL′int=CLint×(10^6 cells/g of liver weight)×(g liver weight/kg of body weight). In the first approximation, used in this study, fu=1.
(§7) Hepatic extraction ratio EH was calculated using the following equation:
(§8) [formula] Corresponding physiological parameters used in calculations for all species are shown below in Table 3.

In the next series the test system is human hepatocytes. The series is described as above. Format: in vitro ADME. Particulars: Human Hepatocytes; for EH (hepatic extraction ratio): well stirred liver model, fu=1.
From the text: as §1, §2, §3, §4, §5, §6, §7, §8

A short description of series [2]: Hepatocyte intrinsic clearance assay (metabolic stability), rat hepatocytes. It counts as in vitro ADME. Particulars: rat, cryopreserved hepatocytes, Rat Hepatocytes, 1 μM test compound.
From the text: as §1, §2, §3, §4, §5, §6, §7, §8

A further series has as its system rat hepatocytes. The description is as above. As to conditions: Rat Hepatocytes; for EH (hepatic extraction ratio): well stirred liver model, fu=1. Format: in vitro ADME.
From the text: as §1, §2, §3, §4, §5, §6, §7, §8

A further series addresses T1, AhR (Homo sapiens, UniProt P35869).
T1 construct: host or cells: human HepG2 cells
T1 sequence (P35869 11-848): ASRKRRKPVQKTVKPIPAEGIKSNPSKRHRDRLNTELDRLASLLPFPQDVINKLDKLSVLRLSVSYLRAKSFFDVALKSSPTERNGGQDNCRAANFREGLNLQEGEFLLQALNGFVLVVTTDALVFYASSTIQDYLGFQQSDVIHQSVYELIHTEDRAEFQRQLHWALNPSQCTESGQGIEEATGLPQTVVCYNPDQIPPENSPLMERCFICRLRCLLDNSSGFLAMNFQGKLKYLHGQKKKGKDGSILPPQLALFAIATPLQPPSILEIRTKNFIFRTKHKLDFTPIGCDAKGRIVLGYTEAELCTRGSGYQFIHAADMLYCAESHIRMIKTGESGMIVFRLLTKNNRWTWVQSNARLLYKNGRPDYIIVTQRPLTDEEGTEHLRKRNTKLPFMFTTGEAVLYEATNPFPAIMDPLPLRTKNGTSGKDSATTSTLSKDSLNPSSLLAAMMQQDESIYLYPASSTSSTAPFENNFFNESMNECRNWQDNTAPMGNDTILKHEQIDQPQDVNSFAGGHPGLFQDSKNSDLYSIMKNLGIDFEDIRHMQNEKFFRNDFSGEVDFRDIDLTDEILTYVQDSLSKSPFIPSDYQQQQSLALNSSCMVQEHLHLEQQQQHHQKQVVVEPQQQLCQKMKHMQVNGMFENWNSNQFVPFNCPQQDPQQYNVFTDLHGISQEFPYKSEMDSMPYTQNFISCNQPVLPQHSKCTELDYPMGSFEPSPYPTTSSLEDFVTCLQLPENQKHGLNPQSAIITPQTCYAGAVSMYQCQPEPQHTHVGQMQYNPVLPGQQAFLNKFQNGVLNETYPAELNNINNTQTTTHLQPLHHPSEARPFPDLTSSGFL
The series is described as follows: EROD assay (7-ethoxy-resorufin-O-deethylase; CYP1A1 activity) in human HepG2 cells. Format: cell-based. How it is done: CYP1A1 induction is under the control of the AhR signaling pathway. This Example describes an in vitro assay (7-ethoxy-resorufin-O-deethylase (EROD) assay) that evaluated the AhR modulating activities of the indole compounds described herein. In this assay, the indole compounds were incubated with human HepG2 cells or mouse Hepa1-6 cells. The activity of CYP1A1 in the cells was measured by the conversion of substrate 7-ethoxyresorufin, with the readout being a fluorescence signal associated with the conversion product. The EC50 values of the indole compounds as well as the maximum luminescence induced by them in the assay were determined.
Human HepG2 cells were obtained from Sigma Aldrich (Catalog 85011430-1VL).
Human HepG2 cells were grown to 60-80% confluency in tissue culture flasks, lifted with non-enzymatic cell dissociation solution (cell stripper), seeded in a 384-well plate at 5,000 cells per well, treated with the test compounds, and incubated for 20 hours overnight at 37° C. The treatment medium was removed and a solution of substrate 7-ethoxyresorufin (ETX) was added to initiate the reaction. The plate was incubated at 37° C. for 30 minutes. The reaction was subsequently terminated by adding tempered methanol. Fluorescent emission was measured at 590 nm with excitation at 530 nm in a FLEXSTATION III instrument (Molecular Devices).

[3] abbreviates: HepG2, human HepG2 cells, Plate 1.

Results on nine compounds are retold here after patent publication US11390621B2, “Chiral indole compounds and their use” (ARIAGEN, INC., priority 2019, dated 2022).

Broadly, the half-life is the time in which the quantity being followed falls by half. A low value points to fast loss. What is called hepatocyte CLint is the capacity of the preparation to metabolise the compound, expressed as a volume cleared per time. A high value points to faster metabolism. Take `O=C(c1nc(C(O)C(F)(F)F)cs1)c1c[nH]c2ccccc12` (centres unmarked) [ARI088]: the half-life at 1 μM in series [1] is 54 min; in series [2], 60 min. Further, the intrinsic clearance (hepatocyte CLint) at 1 μM in series [1] came out at 12.4 µL/min/1e6 cells; in series [2] it was 11.6 µL/min/1e6 cells. Further, the “EH (hepatic extraction ratio)” value in the series on human hepatocytes stood at 24.1%; with rat hepatocytes it was 43.7%.

One may read the EC90 as the concentration at which the effect reaches the 90% level. Read a low EC90 as greater potency. As a reminder, the EC50 is the concentration at which the effect is half-maximal. Lower therefore signals a more potent agent. At AhR (setting [3]), `CCC(O)(CC)c1csc(C(=O)c2c[nH]c3cc(F)ccc23)n1` [ARI-210, (6-fluoro-1H-indol-3-yl)(4-(3-hydroxypentan-3-yl)thiazol-2-yl)methanone] had a 90% effect concentration (EC90) of 627 nM. Also, the EC50 at AhR (human HepG2 cells, Plate 1) came out at 241 nM. The values for the half-life at 1 μM in series [1] and in series [2] were 42 min and 24 min, respectively. The hepatocyte CLint at 1 μM in series [1] worked out at 16 µL/min/1e6 cells; in series [2], 29.9 µL/min/1e6 cells. In addition, the “EH (hepatic extraction ratio)” value with human hepatocytes is 25.4%; in the series on rat hepatocytes, 66.7%.

`CCC(C)(O)c1csc(C(=O)c2c[nH]c3cc(F)ccc23)n1` (centres unmarked) [ARI209, (6-fluoro-1H-indol-3-yl)(4-(2-hydroxybutan-2-yl)thiazol-2-yl)methanone]: the results for the half-life at 1 μM in series [1] and in series [2] were 48 min and 54 min, respectively. The hepatocyte CLint at 1 μM worked out at 14.7 µL/min/1e6 cells in series [1] and 12.2 µL/min/1e6 cells in series [2]. The “EH (hepatic extraction ratio)” value was found to be 25.0% with human hepatocytes and 44.9% with rat hepatocytes.

On AhR (setting [3]), `CC[C@@H](O)c1nc(C(=O)c2c[nH]c3cc(F)ccc23)cs1` [ARI-214] returned an EC90 of 2810 nM. This compound returned an EC50 on AhR (human HepG2 cells, Plate 1) of 582 nM. The values for the half-life at 1 μM in series [1] and in series [2] were 30 min and 84 min, respectively. The hepatocyte CLint at 1 μM turned out to be 21.5 µL/min/1e6 cells in series [1] and 8.01 µL/min/1e6 cells in series [2]. Moreover, the “EH (hepatic extraction ratio)” value in the series on human hepatocytes amounted to 26.7%; with rat hepatocytes it was 34.9%.

`CC[C@@H](O)c1csc(C(=O)c2c[nH]c3ccc(F)cc23)n1` [ARI-195] came in with an EC90 at AhR (setting [3]) of 847 nM. Moreover, at AhR (human HepG2 cells, Plate 1), the half-maximal effective concentration (EC50) was 289 nM. The half-life at 1 μM in series [1] was 36 min; in series [2] it was 78 min. Moreover, the hepatocyte CLint at 1 μM in series [1] was 20.6 µL/min/1e6 cells; in series [2], 9.16 µL/min/1e6 cells. For the same compound, the “EH (hepatic extraction ratio)” value in the series on human hepatocytes is 26.5%; in the series on rat hepatocytes, 38.0%.

As to `CC[C@H](O)c1nc(C(=O)c2c[nH]c3cc(F)ccc23)cs1` [ARI-213], the 90% effect level on AhR (setting [3]) (EC90) was put at 672 nM. Besides, the EC50 on AhR (human HepG2 cells, Plate 1) stood at 476 nM. Besides, the half-life at 1 μM in series [1] and in series [2] was 48 min throughout. Moreover, the intrinsic clearance (hepatocyte CLint) at 1 μM worked out at 14 µL/min/1e6 cells in series [1] and 13.9 µL/min/1e6 cells in series [2]. The “EH (hepatic extraction ratio)” value with human hepatocytes was found to be 24.7%; in the series with rat hepatocytes it was 48.1%.

On AhR (setting [3]), `CC(C)(O)c1csc(C(=O)c2c[nH]c3ccccc23)n1` [ARI-215, (1H-indol-3-yl)(4-(2-hydroxypropan-2-yl)thiazol-2-yl)methanone] returned an EC90 of 135 nM. The same compound gave an EC50 at AhR (human HepG2 cells, Plate 1) of 119 nM. The half-life at 1 μM is 36 min in series [1] and 54 min in series [2]. The hepatocyte CLint at 1 μM in series [1] was determined as 17.9 µL/min/1e6 cells; in series [2], 13.4 µL/min/1e6 cells. Moreover, the “EH (hepatic extraction ratio)” value with human hepatocytes was determined as 25.9%; in the series with rat hepatocytes, 47.3%.

For `CC[C@H](O)c1csc(C(=O)c2c[nH]c3ccc(F)cc23)n1` [ARI-194], at AhR (setting [3]), the EC90 is 517 nM. Also, at AhR (human HepG2 cells, Plate 1), the EC50 worked out at 409 nM. The half-life at 1 μM in series [1] and in series [2] was 36 min each time. Further, the values for the intrinsic metabolic clearance (hepatocyte CLint) at 1 μM in series [1] and in series [2] were 20.5 µL/min/1e6 cells and 18.2 µL/min/1e6 cells, respectively. Moreover, the “EH (hepatic extraction ratio)” value in the series with human hepatocytes was 26.5%; in the series on rat hepatocytes, 55.0%.

Regarding `COC(=O)c1csc(C(=O)c2c[nH]c3ccccc23)n1` [ARI-001, ITE, reference compound], the EC50 at AhR (human HepG2 cells, Plate 1) was found to be 4440 nM; on AhR (human HepG2 cells, Plate 2), 29000 nM. In addition, the EC90 on AhR (human HepG2 cells, Plate 1) was 13200 nM; on AhR (human HepG2 cells, Plate 2), 458000 nM. The CLint with human hepatocytes (1 μM test compound) was 767.365 μL/min/10^6 cells; in the series on rat hepatocytes (1 μM test compound), 89.786 μL/min/10^6 cells. The “EH (hepatic extraction ratio)” value in the series on human hepatocytes turned out to be 31.3%; in the series on rat hepatocytes, 85.7%.
